According to US9707269B2, “Sugar compositions for treating hemophilia A and/or von Willebrand disease” (CSL Behring GmbH, priority 2012, dated 2017):
Entries after “also recorded” stand apart in the source; their conditions may differ.

Assays:
[1] = target: T1, rhCLEC4M (Homo sapiens, UniProt Q9H2X3); experiment: SPR binding to immobilized clearance receptor rhCLEC4M; settings: 25 °C, 5 mM CaCl2, pH 7.4, FIGS. 9 and 10
T1 construct: The extracellular domains of receptor proteins were acquired from R&D Systems (Wiesbaden, Germany); purchased R&D Systems (Wiesbaden, Germany)
T1 sequence (Q9H2X3 71-399 limits assumed): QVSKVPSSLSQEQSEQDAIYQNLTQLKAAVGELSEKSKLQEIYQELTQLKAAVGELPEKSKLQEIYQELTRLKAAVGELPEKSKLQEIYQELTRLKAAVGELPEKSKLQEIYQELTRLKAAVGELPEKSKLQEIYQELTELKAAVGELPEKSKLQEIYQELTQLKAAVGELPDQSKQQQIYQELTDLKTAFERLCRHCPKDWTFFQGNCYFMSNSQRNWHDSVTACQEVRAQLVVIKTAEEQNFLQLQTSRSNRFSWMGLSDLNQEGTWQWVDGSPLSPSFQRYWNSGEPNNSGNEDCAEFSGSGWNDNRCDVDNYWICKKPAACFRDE
Description: (§1) SPR technology (Biacore T200, GE Healthcare Biosciences, Uppsala, Sweden) was applied to evaluate mechanisms of realtime biomolecular interactions between VWF, receptor-blocking agents and clearance receptor candidates. The interaction experiments were performed at a flow cell temperature of +25° C. by applying running buffer containing 10 mM HEPES, 150 mM NaCl, 5 mM CaCl2 and 0.05% Tween-20 at pH 7.4, which was also used as sample dilution buffer. Reagents and buffer stock solutions were purchased from GE Healthcare Biosciences (Uppsala, Sweden). The extracellular domains of receptor proteins were acquired from R&D Systems (Wiesbaden, Germany). The ligands were captured on Series S Sensor […] pretreated according to the manufacturer's instructions. The receptor proteins were covalently immobilized through free amine groups to the carboxymethylated dextran matrix by applying the amine coupling kit according to the manufacturer protocol. A blank flow cell without immobilized protein was included as a reference surface on the chip for bulk shift and nonspecific binding changes.
(§2) Increasing concentrations of both ASF and fetuin ranging from 10,240 to 10 nM were prepared as a 2 fold serial dilution series in running buffer and sequentially injected across the chip surface at 25 μL/min in order to characterize protein-ligand interaction. […]
(§3) Kinetic data were analyzed using Biacore T200 Evaluation Software Version 1.0 (GE Healthcare Biosciences, Uppsala, Sweden). An interaction of the analyte with the ligand was detected by an increase in accumulating mass and specific binding was identified by subtracting the binding response recorded from the control surface, followed by subtracting an average of the buffer blank injections. A report point was positioned 20 seconds after the end of sample injection and was evaluated as representative for a stable protein-ligand interaction, which was of interest. […] Furthermore, the response was calculated relative to the baseline in each case.

[2] = target: T2, rhCOLEC12 (Homo sapiens, UniProt Q5KU26); experiment: SPR binding to immobilized clearance receptor rhCOLEC12; settings: 25 °C, 5 mM CaCl2, pH 7.4, FIGS. 9 and 10
T2 construct: The extracellular domains of receptor proteins were acquired from R&D Systems (Wiesbaden, Germany); purchased R&D Systems (Wiesbaden, Germany)
T2 sequence (Q5KU26 59-742 limits assumed): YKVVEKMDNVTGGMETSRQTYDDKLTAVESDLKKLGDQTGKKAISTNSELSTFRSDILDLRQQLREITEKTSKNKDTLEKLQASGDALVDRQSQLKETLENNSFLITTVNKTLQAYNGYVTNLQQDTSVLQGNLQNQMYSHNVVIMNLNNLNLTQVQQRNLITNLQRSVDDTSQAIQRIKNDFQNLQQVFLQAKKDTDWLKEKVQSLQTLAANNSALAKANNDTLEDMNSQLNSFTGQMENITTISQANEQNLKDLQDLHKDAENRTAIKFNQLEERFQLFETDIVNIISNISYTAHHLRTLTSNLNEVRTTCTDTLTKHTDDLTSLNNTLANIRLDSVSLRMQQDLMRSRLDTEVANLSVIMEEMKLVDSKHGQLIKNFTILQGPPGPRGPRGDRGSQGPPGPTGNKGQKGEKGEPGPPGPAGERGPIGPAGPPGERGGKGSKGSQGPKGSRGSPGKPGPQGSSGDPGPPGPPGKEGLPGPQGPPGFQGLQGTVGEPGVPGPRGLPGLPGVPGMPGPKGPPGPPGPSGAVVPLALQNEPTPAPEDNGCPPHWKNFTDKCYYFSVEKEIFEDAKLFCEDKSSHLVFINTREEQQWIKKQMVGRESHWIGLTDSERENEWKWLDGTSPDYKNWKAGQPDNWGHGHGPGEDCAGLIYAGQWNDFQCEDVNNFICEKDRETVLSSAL
Description: as §1, §2, §3

[3] = target: T3, rhASGPR (Homo sapiens, UniProt P07306); experiment: SPR binding to immobilized clearance receptor rhASGPR; settings: 25 °C, 5 mM CaCl2, pH 7.4, FIGS. 9 and 10
T3 construct: The extracellular domains of receptor proteins were acquired from R&D Systems (Wiesbaden, Germany); purchased R&D Systems (Wiesbaden, Germany)
T3 sequence (P07306 62-291 limits assumed): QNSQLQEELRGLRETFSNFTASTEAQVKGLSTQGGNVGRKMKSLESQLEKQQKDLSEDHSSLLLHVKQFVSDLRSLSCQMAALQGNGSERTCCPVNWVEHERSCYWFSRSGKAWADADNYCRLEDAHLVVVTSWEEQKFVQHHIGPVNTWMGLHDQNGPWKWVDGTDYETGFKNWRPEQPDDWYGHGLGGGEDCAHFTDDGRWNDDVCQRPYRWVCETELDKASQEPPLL
Description: SPR technology (Biacore T200, GE Healthcare Biosciences, Uppsala, Sweden) was applied to evaluate mechanisms of realtime biomolecular interactions between VWF, receptor-blocking agents and clearance receptor candidates. The interaction experiments were performed at a flow cell temperature of +25° C. by applying running buffer containing 10 mM HEPES, 150 mM NaCl, 5 mM CaCl2 and 0.05% Tween-20 at pH 7.4, which was also used as sample dilution buffer. Reagents and buffer stock solutions were purchased from GE Healthcare Biosciences (Uppsala, Sweden). The extracellular domains of receptor proteins were acquired from R&D Systems (Wiesbaden, Germany). […]
as §3

[4] = target: T4, rhCLEC10A (Homo sapiens, UniProt Q8IUN9); experiment: SPR binding to immobilized clearance receptor rhCLEC10A; settings: 25 °C, 5 mM CaCl2, pH 7.4, FIGS. 9 and 10
T4 construct: The extracellular domains of receptor proteins were acquired from R&D Systems (Wiesbaden, Germany); purchased R&D Systems (Wiesbaden, Germany)
T4 sequence (Q8IUN9 61-316 limits assumed): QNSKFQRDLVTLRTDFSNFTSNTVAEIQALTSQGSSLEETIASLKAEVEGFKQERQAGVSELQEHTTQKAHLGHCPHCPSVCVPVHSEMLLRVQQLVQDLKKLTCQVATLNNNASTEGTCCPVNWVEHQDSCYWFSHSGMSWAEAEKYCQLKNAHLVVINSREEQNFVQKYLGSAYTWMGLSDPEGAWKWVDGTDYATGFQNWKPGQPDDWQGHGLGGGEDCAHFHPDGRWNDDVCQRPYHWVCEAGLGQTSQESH
Description: as §1, §2, §3

[5] = target: T5, rhSCARA5 (Homo sapiens, UniProt Q6ZMJ2); experiment: SPR binding to immobilized clearance receptor rhSCARA5; settings: 25 °C, 5 mM CaCl2, pH 7.4, FIGS. 9 and 10
T5 construct: The extracellular domains of receptor proteins were acquired from R&D Systems (Wiesbaden, Germany); purchased R&D Systems (Wiesbaden, Germany)
T5 sequence (Q6ZMJ2 82-495 limits assumed): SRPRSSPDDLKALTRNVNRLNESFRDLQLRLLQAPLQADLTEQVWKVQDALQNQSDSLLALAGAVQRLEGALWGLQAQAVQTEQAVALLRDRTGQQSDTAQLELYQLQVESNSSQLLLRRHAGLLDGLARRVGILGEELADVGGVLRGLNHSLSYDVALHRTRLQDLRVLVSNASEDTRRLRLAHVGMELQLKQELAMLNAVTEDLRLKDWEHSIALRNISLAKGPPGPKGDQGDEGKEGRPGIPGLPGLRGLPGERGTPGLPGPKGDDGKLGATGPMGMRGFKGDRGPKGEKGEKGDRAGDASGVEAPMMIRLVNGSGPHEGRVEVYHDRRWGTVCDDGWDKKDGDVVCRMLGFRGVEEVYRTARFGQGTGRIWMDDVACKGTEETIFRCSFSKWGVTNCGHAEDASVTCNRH
Description: as §1, §2, §3

[6] = target: T6, rmCLEC4F (Mus musculus, UniProt P70194); experiment: SPR binding to immobilized clearance receptor rmCLEC4F; settings: 25 °C, 5 mM CaCl2, pH 7.4, FIGS. 9 and 10
T6 construct: The extracellular domains of receptor proteins were acquired from R&D Systems (Wiesbaden, Germany); purchased R&D Systems (Wiesbaden, Germany)
T6 sequence (P70194 70-548 limits assumed): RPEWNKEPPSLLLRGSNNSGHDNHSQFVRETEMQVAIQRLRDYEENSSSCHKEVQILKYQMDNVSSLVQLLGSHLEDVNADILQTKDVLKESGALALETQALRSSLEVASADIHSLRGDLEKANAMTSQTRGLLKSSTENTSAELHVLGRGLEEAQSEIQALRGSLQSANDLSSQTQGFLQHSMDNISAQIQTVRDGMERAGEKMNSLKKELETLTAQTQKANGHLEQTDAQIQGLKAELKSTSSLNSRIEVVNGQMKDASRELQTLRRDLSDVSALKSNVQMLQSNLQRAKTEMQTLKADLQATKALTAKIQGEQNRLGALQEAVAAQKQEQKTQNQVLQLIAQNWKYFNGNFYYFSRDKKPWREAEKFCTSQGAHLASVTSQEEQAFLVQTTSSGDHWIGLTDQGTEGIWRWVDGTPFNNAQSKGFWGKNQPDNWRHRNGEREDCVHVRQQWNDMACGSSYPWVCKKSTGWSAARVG
Description: as §1, §2, §3

[7] = test system: clearance receptor candidates; experiment: Interaction of pd VWF multimers with clearance receptor candidates and its inhibition (Example 10); format: binding; settings: example without data; for inhibition of binding of pd VWF multimers to clearance receptor candidates: in the presence of ASF or monosaccharides
Source text: According to Example 9, pd VWF multimers interact with clearance receptor candidates mentioned earlier. In addition, binding is inhibited in the presence of ASF or monosaccharides such as galactose, fucose and N-acetylgalactosamine.

[8] = test system: clearance receptors; experiment: Inhibition of pd VWF monomer interaction with clearance receptors by monosaccharides (Example 8); format: binding; settings: in the presence of monosaccharides; example without data
Source text: According to example 7, the interaction of pd VWF monomers with clearance receptors mentioned earlier is inhibited in the in the presence of monosaccharides such as galactose, fucose and N-acetylgalactosamine.

[9] = target: T3, rhASGPR; experiment: SPR inhibition of ASF binding to rhASGPR by monosaccharides; settings: in the presence of the monosaccharide, FIG. 11
Description: as §1, §2
as §3, with “case. […]” for “case.”

[10] = target: T3, rhASGPR; experiment: Solid-phase binding assay of multimeric VWF with rhASGPR; settings: VWF 100 to 3 μg/mL, 1 hour at +37 °C; FIG. 12
Source text: In addition to SPR-based interaction analysis with monomeric VWF, the interaction of multimeric VWF (purified from human plasma) with rhASGPR was investigated by using solid-phase binding assay. In addition, asialo-VWF (plasma derived VWF after treatment with α(2-3,6,8)-neuraminidase) was used as control.
Lyophilized rhASGPR (R&D Systems, Wiesbaden, Germany) was reconstituted and diluted in 0.05 M carbonate-bicarbonate buffer at pH 9.6, adsorbed onto high-adsorption 96-microwell plates at RT overnight, and subsequently washed with washing buffer (50 mM Tris, 150 mM NaCl, 5 mM CaCl2 and 0.1% (w/v) Tween-20 at pH 7.4). Afterwards, the wells were incubated for 1 hour with blocking solution (50 mM Tris, 150 mM NaCl, 5 mM CaCl2 and 2.5% (w/v) BSA at pH 7.4) in order to block non-specific binding, and then washed with washing buffer again. […] After washing the wells, associated VWF was subsequently detected by a commercial polyclonal rabbit anti-human VWF antibody conjugated with HRP (DakoCytomation, Glostrup, Denmark) that had been previously diluted 1:16,000 in dilution buffer. […] The reaction was stopped with stopping solution POD (Siemens Healthcare Diagnostics, Marburg, Germany) and the substrate reaction was photometrically monitored by measuring the difference in wave lengths at 450 nm and 620 nm.

Compound	SPR binding to rhCLEC4M [1]	SPR binding to rhCOLEC12 [2]	SPR binding to rhCLEC10A [4]	SPR binding to rhSCARA5 [5]	SPR binding to rmCLEC4F [6]	inhibition of binding of pd VWF multimers to clearance receptor candidates [7]	inhibition of interaction of pd VWF monomers with clearance receptors [8]	inhibition of ASF binding to immobilized rhASGPR [9]	other results
VWF: purified VWF monomers (pd VWF after reduction with dithiothreitol and carboxymethylation with iodoacetamide)	bind efficiently	bind efficiently	bind efficiently	bind efficiently	bind efficiently	–	–	–	SPR binding to rhASGPR [3]: bind efficiently
C[C@H](O)[C@@H](O)[C@@H](O)[C@H](O)C=O [Fuc, fucose]	–	–	–	–	–	inhibited	inhibited	decreased binding; also recorded: inhibited binding	–
O=C[C@H](O)[C@@H](O)[C@@H](O)[C@H](O)CO [Gal, galactose]	–	–	–	–	–	inhibited	inhibited	decreased binding; also recorded: inhibited binding	–
plasma derived VWF multimers: multimeric VWF purified from human plasma, native glycosylation structure without modifications	–	–	–	–	–	–	–	–	interaction of pd VWF multimers with clearance receptor candidates ([7]; according to Example 9): interact; interaction with rhASGPR, solid-phase binding assay [10]: interacted with rhASGPR
fetuin [reference compound]	almost not	almost not	almost not	almost not	almost not	–	–	–	SPR binding to rhASGPR [3]: almost not
asialo-VWF multimers: plasma derived VWF after treatment with α(2-3,6,8)-neuraminidase, used as control	–	–	–	–	–	–	–	–	interaction with rhASGPR, solid-phase binding assay [10]: interacted with rhASGPR
CC(=O)N[C@H]1C(O)O[C@H](CO)[C@H](O)[C@@H]1O (stereo partly drawn) [GalNac, N-acetylgalactosamine]	–	–	–	–	–	inhibited	inhibited	decreased binding; also recorded: inhibited binding	–
asialofetuin: bovine ASF (fetuin after the removal of terminal sialic acid residues), ligand blocking galactose receptors such as ASGPR	bind efficiently	bind efficiently	bind efficiently	bind efficiently	bind efficiently	inhibited	–	–	–
